This passage reports inhibition results from publication PMC4951600 (Iranian Journal of Basic Medical Sciences, 2016).

The structures appear in SMILES notation.

The assay concerns the target mitochondrial ATP synthase (DNP-stimulated Mg2+-ATPase), rat heart mitochondria (Rattus norvegicus, UniProt P10719+P15999). Briefly: phosphate release from ATP. The assay is classed as biochemical.

mitochondrial ATP synthase (DNP-stimulated Mg2+-ATPase), rat heart mitochondria, sequence (P10719 47-529): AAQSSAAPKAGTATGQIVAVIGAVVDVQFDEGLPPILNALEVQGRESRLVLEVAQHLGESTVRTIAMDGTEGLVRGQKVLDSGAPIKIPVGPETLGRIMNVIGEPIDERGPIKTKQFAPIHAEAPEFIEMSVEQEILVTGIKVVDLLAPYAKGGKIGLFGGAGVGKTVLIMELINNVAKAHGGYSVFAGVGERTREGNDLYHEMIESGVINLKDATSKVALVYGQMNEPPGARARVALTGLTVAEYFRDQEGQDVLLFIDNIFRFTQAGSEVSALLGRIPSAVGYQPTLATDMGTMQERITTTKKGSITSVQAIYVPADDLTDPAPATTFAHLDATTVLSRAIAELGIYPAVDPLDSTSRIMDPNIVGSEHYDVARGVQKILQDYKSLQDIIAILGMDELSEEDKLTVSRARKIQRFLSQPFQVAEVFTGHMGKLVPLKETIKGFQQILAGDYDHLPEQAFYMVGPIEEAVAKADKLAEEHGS
mitochondrial ATP synthase (DNP-stimulated Mg2+-ATPase), rat heart mitochondria, sequence (P15999 44-553): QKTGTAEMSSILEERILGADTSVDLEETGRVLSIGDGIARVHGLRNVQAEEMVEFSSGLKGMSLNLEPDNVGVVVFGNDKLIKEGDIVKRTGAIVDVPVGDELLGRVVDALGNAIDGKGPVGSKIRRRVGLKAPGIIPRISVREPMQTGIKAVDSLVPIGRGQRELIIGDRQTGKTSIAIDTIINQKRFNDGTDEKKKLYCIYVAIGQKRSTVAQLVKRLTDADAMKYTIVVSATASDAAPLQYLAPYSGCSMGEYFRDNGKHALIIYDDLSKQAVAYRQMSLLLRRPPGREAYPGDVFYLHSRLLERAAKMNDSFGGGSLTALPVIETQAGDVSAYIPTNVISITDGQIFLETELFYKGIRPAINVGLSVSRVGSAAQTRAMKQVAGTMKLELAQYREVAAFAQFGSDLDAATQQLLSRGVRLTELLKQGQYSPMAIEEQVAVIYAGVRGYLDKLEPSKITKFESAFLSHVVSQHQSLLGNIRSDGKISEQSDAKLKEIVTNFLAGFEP
mitochondrial ATP synthase (DNP-stimulated Mg2+-ATPase), rat heart mitochondria, sequence (P35435 whole entry partner): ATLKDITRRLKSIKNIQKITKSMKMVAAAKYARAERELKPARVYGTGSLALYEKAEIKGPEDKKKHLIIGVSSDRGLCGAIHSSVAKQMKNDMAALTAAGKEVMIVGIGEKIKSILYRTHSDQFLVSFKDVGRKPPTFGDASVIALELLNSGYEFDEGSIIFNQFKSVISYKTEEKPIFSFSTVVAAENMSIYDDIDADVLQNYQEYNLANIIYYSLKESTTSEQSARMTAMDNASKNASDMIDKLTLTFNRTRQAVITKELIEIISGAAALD
mitochondrial ATP synthase (DNP-stimulated Mg2+-ATPase), rat heart mitochondria, sequence (P35434 23-168 partner): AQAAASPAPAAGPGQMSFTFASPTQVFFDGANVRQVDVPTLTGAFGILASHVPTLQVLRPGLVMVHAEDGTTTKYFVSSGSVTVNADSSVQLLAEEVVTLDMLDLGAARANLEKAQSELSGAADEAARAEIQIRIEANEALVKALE
mitochondrial ATP synthase (DNP-stimulated Mg2+-ATPase), rat heart mitochondria, sequence (P29418 2-51 partner): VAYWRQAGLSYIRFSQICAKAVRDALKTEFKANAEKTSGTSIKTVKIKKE
mitochondrial ATP synthase (DNP-stimulated Mg2+-ATPase), rat heart mitochondria, sequence (Q06647 24-213 partner): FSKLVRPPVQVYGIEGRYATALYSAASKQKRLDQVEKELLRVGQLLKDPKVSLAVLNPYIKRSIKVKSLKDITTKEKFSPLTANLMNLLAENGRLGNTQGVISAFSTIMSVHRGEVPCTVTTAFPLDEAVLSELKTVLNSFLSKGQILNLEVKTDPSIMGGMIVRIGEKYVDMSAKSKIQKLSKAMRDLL

In the case of `C[C@H](CS)C(=O)N1CCC[C@H]1C(=O)O` [captopril], under “read-out: % inhibition at 0.45 mmol/l”, the inhibition at 450 µM is 97.4%.
As for `COC(=O)C1=C(C)NC(C)=C(C(=O)OC)C1c1ccccc1[N+](=O)[O-]` [nifedipine], the inhibition at 15 µM (read-out: % inhibition at 0.015 mmol/l) worked out at 33%.
